“Also recorded” adds a separate entry of the source. Where two headings read alike, the source gives them in different places.
Assays:
[1] = target: A/Mississippi/03/01 H1N1 H274Y mutant NA (Influenza A virus, UniProt Q289M4, H275Y); assay type: biochemical, influenza virus A/Mississippi/03/01 H1N1
[2] = target: A/Fukui/45/04 H3N2 E119V mutant NA (Influenza A virus, UniProt C0IZY2, E119V); assay type: biochemical, influenza virus A/Fukui/45/04 H3N2
[3] = target: B/Perth/211/01 D197E mutant NA (Influenza B virus, UniProt Q3S340, D197E); assay type: biochemical, influenza B virus B/Perth/211/01
[4] = read-out: IC50 at 10 min, 30' Pre
[5] = read-out: IC50 at 10 min, No pre
[6] = read-out: final IC50 after 60 min, 30' pre
[7] = read-out: final IC50 after 60 min, No pre

Compound: oseltamivir carboxylate
- binding phenotype (slow or fast binding) [1]: loss of slow binding
- IC50 [1, 4]: 1590 nM
- IC50 [1, 5]: 1900 nM
- IC50 [1, 6]: 2440 nM
- IC50 [1, 7]: 2350 nM
- binding phenotype (slow or fast binding) [2]: fast binding; also recorded: loss of slow binding
- IC50 [2, 4]: 122 nM
- IC50 [2, 5]: 178 nM
- IC50 [2, 6]: 260 nM
- IC50 [2, 7]: 208 nM

Compound: CC(=O)N[C@H]1[C@H]([C@H](O)[C@H](O)CO)OC(C(=O)O)=C[C@@H]1N=C(N)N [Zanamivir, zanamivir]
- binding phenotype (slow or fast binding) [1]: no impact on the binding kinetics
- binding phenotype (slow or fast binding) [2]: slow binding phenotype

Compound: CC(=O)N[C@H]1[C@H]([C@H](O)[C@H](O)CO)OC(C(=O)O)=C[C@@H]1O [DANA, 2-deoxy,2,3-dehydro N-acetyl neuraminic acid]
- binding phenotype (slow or fast binding) [1]: fast binding
- binding phenotype (slow or fast binding) [2]: fast binding
- binding phenotype (slow or fast binding) [3]: fast binding
- susceptibility compared to the wild type virus [3]: Some reduced susceptibility

Compound: CCC(CC)[C@H](NC(C)=O)[C@@H]1[C@H](O)[C@@H](C(=O)O)C[C@H]1N=C(N)N [Peramivir, peramivir]
- 10'/60 (ratio of IC50s), No pre [1]: 0.7
- 60'/10 (ratio of IC50s), 30' Pre [1]: 1.5
- No pre/pre (ratio of 60 min IC50s) [1]: 1.3
- binding phenotype (slow or fast binding) [1]: loss of slow binding
- IC50 [1, 4]: 100 nM
- IC50 [1, 5]: 130 nM
- IC50 [1, 6]: 153 nM
- IC50 [1, 7]: 196 nM
- 10'/60 (ratio of IC50s), No pre [2]: 7.2
- 60'/10 (ratio of IC50s), 30' Pre [2]: 1.5
- No pre/pre (ratio of 60 min IC50s) [2]: 10.2
- IC50 [2, 4]: 1.4 nM
- IC50 [2, 5]: 154 nM
- IC50 [2, 6]: 2.1 nM
- IC50 [2, 7]: 21.4 nM
- 10'/60 (ratio of IC50s), No pre [3]: 2.5
- No pre/pre (ratio of 60 min IC50s) [3]: 1.8
- binding phenotype (slow or fast binding) [3]: loss of slow binding
- IC50 [3, 4]: 3.9 nM
- IC50 [3, 5]: 186 nM
- IC50 [3, 6]: 41.5 nM
- IC50 [3, 7]: 75.2 nM
